Experimental data taken from paper PMC5351590, “Cucurbitacin B exerts anti-cancer activities in human multiple myeloma cells in vitro and in vivo by modulating multiple cellular pathways” (Oncotarget, 2016).

Target: T1, Aurora A (Homo sapiens, UniProt O14965)
T1 construct: gene AURKA
T1 sequence (O14965 1-403): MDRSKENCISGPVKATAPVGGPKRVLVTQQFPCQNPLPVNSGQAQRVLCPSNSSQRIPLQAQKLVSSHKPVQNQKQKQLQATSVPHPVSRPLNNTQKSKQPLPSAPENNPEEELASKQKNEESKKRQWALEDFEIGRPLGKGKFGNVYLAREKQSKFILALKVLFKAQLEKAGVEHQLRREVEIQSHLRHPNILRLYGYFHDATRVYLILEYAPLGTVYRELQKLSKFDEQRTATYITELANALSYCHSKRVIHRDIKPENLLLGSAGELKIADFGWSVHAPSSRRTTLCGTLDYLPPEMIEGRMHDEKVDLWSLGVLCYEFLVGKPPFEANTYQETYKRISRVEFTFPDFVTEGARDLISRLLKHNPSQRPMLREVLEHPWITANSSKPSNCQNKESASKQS
Test: radiometric […]-ATP kinase assay with purified kinase (Dundee panel; dose-response)
Assay type: biochemical

**Q.** With `CC(=O)OC(C)(C)/C=C/C(=O)[C@](C)(O)[C@H]1[C@H](O)C[C@@]2(C)[C@@H]3CC=C4[C@@H](C[C@H](O)C(=O)C4(C)C)[C@]3(C)C(=O)C[C@]12C` [CuB, Cucurbitacin B] as the compound, how does the IC50 read?
**A.** 0.1 µM
